# Marks after values point to notes of the source that are not given here.
# Key:
# [1] = system: Sprague Dawley rats; experiment: 7-day dose range-finding study; format: in vivo, rat
# Experimental: A single-dose maximum tolerated dose (MTD) phase A study and a 7-day dose range-finding (DRF) phase B study were conducted in Sprague Dawley rats by MPI Research, Inc. (Mattawan, Mich.). A total of 62 males and 62 females rats were assigned to the study, which was performed in accordance with all current regulations. Animals were housed in standard conditions and had ad libitum access to food and water. Healthy animals of each sex were randomized into treatment groups using a standard, by weight, measured value randomization procedure. Compound I was administered by oral gavage, once at each dose level in Phase A (acute), or once daily for 7 consecutive days in Phase B. Oral gavage was chosen because the oral route is the intended route of administration in humans. Animals were observed twice daily for morbidity and mortality and were euthanatized for humane reasons where appropriate. An initial starting dose of 50 mg/kg was used for Phase A. Subsequent doses were increased or decreased based on the response to the preceding dose. […] The dose levels used in Phase B were based on the MTD identified in Phase A.
# Daily doses of 0 (vehicle), 10, 30 and 100 mg/kg were then administered to Sprague Dawley rats by oral gavage for seven days for the dose-range finding study. […] Adverse events included decreased body weight or decreased body weight gain, decreased food consumption, adverse effects on various pathological parameters and Compound I-related macroscopic and microscopic abnormalities in multiple organs. […] The toxicity profile of Compound I is encouraging considering that the drug is effective in rodents at much lower doses. This toxicity-to-effectiveness dose ratio provides, potentially, a wide therapeutic window.
# [2] = physchem; format: physicochemical; details: for solubility thermodynamic: 25 °C, thermodynamic from solid
# Experimental: The maximum quantity of Compound I that can be completely dissolved at 25° C. in the several aqueous buffers and other solvents was evaluated using HPLC. […] Samples were injected with a 250 μg/ml nominal concentration. For samples of unknown concentration, dilutions were made to target the linear range of the method. All samples were quantified based on a linear standard curve. Measurements were performed by Pharmatek Laboratories, Inc. (San Diego, Calif.) with industry-standard quality controls.
# [3] = system: PTEN-CaP2/H2B-GFP tumors; experiment: IVM chamber model of castration resistant prostate cancer (CRPC), tumor size; format: in vivo, mouse
# Excerpt: Mouse prostate cancer cells PTEN-CaP2 were initially derived from the PTEN-P2 cell line and are homozygous for PTEN deletion. Complete ablation of PTEN results in intrinsic androgen-independence in the PTEN-null model. Although PTEN-CaP2 tumors express AR, they are resistant to castration in the absence of prior exposure to ADT.
# [4] = system: PTEN-P2 mouse cells; experiment: Orthotopic prostate cancer survival study, PTEN-P2 cells in Fox1/Nu mice; format: in vivo
# Experimental: Orthotopic injection of PTEN-P2 and TRAMP-C2 for survival studies: Mice were anaesthetized and an incision was made through the skin and peritoneum. A total of 30,000 cells were suspended in Matrigel and slowly injected into the dorsal lobe of the prostate using a 30-gauge needle. Matrigel was used to prevent the leakage of cells out of the site of injection. A Q-tip was held over the injection site for 1 min to prevent bleeding and spill after removal of the needle. The abdominal wall was closed by surgical silk sutures.
# Fox1/Nu or C57BL/6J mice were used as recipients for PTEN-P2 and TRAMP-C2 cells, respectively. Mice were surgically castrated 6 weeks later, when tumors were established, and Compound I treatment was initiated 4-5 days later. The number of days mice lived following treatment initiation was recorded for each animal. A few mice were found dead upon daily inspection, while others were euthanized in agreement with our IACUC regulations, including mice showing weight losses of more than 15% and mice showing signs of pain though posture and lack of grooming were euthanized.
# An orthotopic model of prostate cancer in which 30,000 PTEN-P2 mouse cells were injected into the prostate of Fox1/Nu mice was used. Mice were castrated 5 weeks after the PTEN-P2 mouse cells were injected into the prostate, which allowed the tumors to become established. […] The number of days mice lived following treatment initiation was recorded for each animal.
# [5] = Forced degradation: solution stability in aqueous media (HPLC)
structure (smiles),measurement,setting,value
"CC1=CC(=O)c2c(O)cccc2C1=O [Compound I, 5-hydroxy-2-methylnaphthalene-1,4-dione]",Toxicity observed in rats,[1]; 10 mg/kg/day,Very little toxicity
same,Compound I-related effects,[1]; 10 mg/kg/day low-dose level,limited to minimal changes noted in the teeth of one male
same,Microscopic findings,"[1]; 30 mg/kg/day, both sexes",Minimal to mild non-adverse microscopic abnormalities in various organs
same,Clinical chemistry findings,"[1]; 30 mg/kg/day, oral gavage, seven days",minimal increases in mean serum total bilirubin concentration and alkaline phosphatase activity
same,Morbidity/mortality,"[1]; 100 mg/kg/day, beginning on day 3, early termination of all animals on Day 5",Morbidity/mortality occurred both in male and female rats
same,Solubility in Carrier A,[2],well soluble
same,Solubility in aqueous media,[2],mostly insoluble
same,Solubility in mixtures of triacylglycerols,[2],good solubility
same,Solubility in organic solvents,[2],good solubility
same,solubility thermodynamic,"[2]; pH 1, aqueous buffer",48 µg/mL
same,solubility thermodynamic,"[2]; pH 2, aqueous buffer",45 µg/mL
same,solubility thermodynamic,"[2]; pH 3, aqueous buffer",49 µg/mL
same,solubility thermodynamic,"[2]; pH 4, aqueous buffer",16 µg/mL
same,solubility thermodynamic,"[2]; pH 5, aqueous buffer",46 µg/mL
same,solubility thermodynamic,"[2]; pH 6, aqueous buffer",44 µg/mL
same,solubility thermodynamic,"[2]; pH 7, aqueous buffer",49 µg/mL
same,solubility thermodynamic,"[2]; pH 8, aqueous buffer",43 µg/mL
same,solubility thermodynamic,"[2]; pH 9, aqueous buffer",75 µg/mL
same,solubility thermodynamic,"[2]; pH 10, aqueous buffer",240 µg/mL
same,solubility thermodynamic,[2]; water,72 µg/mL
same,Tumor size relative to initial size,[3]; combination of Compound I and castration,157%
same,Tumor size relative to initial size,"[3]; oral formulation of Compound I alone (680% castrated, 656% untreated)",293%
same,Effectiveness of combination with castration vs Compound I alone,[3]; p=0.048,twice as effective
same,"Survival, combination with castration vs castration alone","[4]; oral 1 mg/kg/day in Carrier A plus castration, p=0.01",survived significantly longer
same,"Survival, Compound I alone vs castration alone","[4]; oral 1 mg/kg/day in Carrier A, p=0.118",not statistically different
same,"Survival, combination with castration vs untreated control","[4]; oral formulation plus castration, p=0.042",survived longer
same,"Survival, Compound I alone vs untreated control",[4]; p=0.296,not statistically different
same,"Solution Stability in Aqueous Media, Purity","[5]; pH 1, 50% DMSO, 25° C./60% RH, t = 0",99.32 % Area
same,"Solution Stability in Aqueous Media, Purity","[5]; pH 1, 50% DMSO, 25° C./60% RH, t = 1 week",98.83 % Area
same,"Solution Stability in Aqueous Media, Purity","[5]; pH 1, 50% DMSO, 25° C./60% RH, t = 2 week",98.73 % Area
same,"Solution Stability in Aqueous Media, Purity","[5]; pH 1, 50% DMSO, 40° C./75% RH, t = 1 week",98.12 % Area
same,"Solution Stability in Aqueous Media, Purity","[5]; pH 1, 50% DMSO, 40° C./75% RH, t = 2 week",95.79 % Area
same,"Solution Stability in Aqueous Media, Purity","[5]; pH 2, 50% DMSO, 25° C./60% RH, t = 0",98.83 % Area
same,"Solution Stability in Aqueous Media, Purity","[5]; pH 2, 50% DMSO, 25° C./60% RH, t = 1 week",98.48 % Area
same,"Solution Stability in Aqueous Media, Purity","[5]; pH 2, 50% DMSO, 25° C./60% RH, t = 2 week",96.90 % Area
same,"Solution Stability in Aqueous Media, Purity","[5]; pH 2, 50% DMSO, 40° C./75% RH, t = 1 week, precipitation observed",93.43^‡ % Area
same,"Solution Stability in Aqueous Media, Purity","[5]; pH 2, 50% DMSO, 40° C./75% RH, t = 2 week, precipitation observed",85.79^‡ % Area
same,"Solution Stability in Aqueous Media, Purity","[5]; pH 3, 50% DMSO, 25° C./60% RH, t = 0",98.85 % Area
same,"Solution Stability in Aqueous Media, Purity","[5]; pH 3, 50% DMSO, 25° C./60% RH, t = 1 week",97.09 % Area
same,"Solution Stability in Aqueous Media, Purity","[5]; pH 3, 50% DMSO, 25° C./60% RH, t = 2 week",95.26 % Area
same,"Solution Stability in Aqueous Media, Purity","[5]; pH 3, 50% DMSO, 40° C./75% RH, t = 1 week",88.81 % Area

# Source: patent US20180221306A1, “PHARMACEUTICAL COMPOSITIONS OF 5-HYDROXY-2-METHYLNAPHTHALENE-1,4-DIONE” (PellFiCure Pharmaceuticals, Inc., priority 2016, published 2018)
